Test results reported in PubChem BioAssay (NCI).
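GI50 marks 50% less growth. Definition used: TGI = concentration required for complete inhibition of growth.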

Key:
Assay in all cases: NCI tumour cell line growth inhibition, 384-well format
RPMI-8226 leukemia = test system: RPMI-8226 leukemia
KM12 colon = test system: KM12 colon
MDA-MB-231 breast = test system: MDA-MB-231 breast
IGROV1 ovarian = test system: IGROV1 ovarian
NCI-H322M lung = test system: NCI-H322M lung
PC-3 prostate = test system: PC-3 prostate
SF-295 CNS = test system: SF-295 CNS
CCRF-CEM leukemia = test system: CCRF-CEM leukemia
HCT-15 colon = test system: HCT-15 colon
SNB-19 CNS = test system: SNB-19 CNS
DU-145 prostate = test system: DU-145 prostate
SF-539 CNS = test system: SF-539 CNS
RXF 393 renal = test system: RXF 393 renal
SK-OV-3 ovarian = test system: SK-OV-3 ovarian
OVCAR-4 ovarian = test system: OVCAR-4 ovarian
LOX IMVI melanoma = test system: LOX IMVI melanoma
MCF7 breast = test system: MCF7 breast
HT29 colon = test system: HT29 colon
OVCAR-5 ovarian = test system: OVCAR-5 ovarian
NCI-H460 NSCLC = test system: NCI-H460 NSCLC
K-562 leukemia = test system: K-562 leukemia
SNB-75 CNS = test system: SNB-75 CNS
M14 melanoma = test system: M14 melanoma
HS 578T breast = test system: HS 578T breast
SN12C renal = test system: SN12C renal
SF-268 CNS = test system: SF-268 CNS
786-0 renal = test system: 786-0 renal
T-47D breast = test system: T-47D breast
HL-60(TB) leukemia = test system: HL-60(TB) leukemia
UACC-62 melanoma = test system: UACC-62 melanoma
A498 renal = test system: A498 renal
HOP-92 NSCLC = test system: HOP-92 NSCLC
BT-549 breast = test system: BT-549 breast
EKVX NSCLC = test system: EKVX NSCLC
NCI-H522 lung = test system: NCI-H522 lung
NCI/ADR-RES ovarian = test system: NCI/ADR-RES ovarian
ACHN renal = test system: ACHN renal
TK-10 renal = test system: TK-10 renal
SW-620 colon = test system: SW-620 colon
MALME-3M melanoma = test system: MALME-3M melanoma
HOP-62 NSCLC = test system: HOP-62 NSCLC
OVCAR-3 ovarian = test system: OVCAR-3 ovarian
SR leukemia = test system: SR leukemia
UO-31 renal = test system: UO-31 renal
SK-MEL-5 melanoma = test system: SK-MEL-5 melanoma
MOLT-4 leukemia = test system: MOLT-4 leukemia
NCI-H23 lung = test system: NCI-H23 lung
MDA-MB-468 breast = test system: MDA-MB-468 breast
OVCAR-8 ovarian = test system: OVCAR-8 ovarian
A549 NSCLC = test system: A549 NSCLC
COLO 205 colon = test system: COLO 205 colon
SK-MEL-28 melanoma = test system: SK-MEL-28 melanoma
MDA-MB-435 melanoma = test system: MDA-MB-435 melanoma
HCC-2998 colon = test system: HCC-2998 colon
CAKI-1 renal = test system: CAKI-1 renal

O=C(NCCCc1cn[nH]c1)c1ccc(-c2ccncc2)c(C#Cc2ccc(F)cc2)c1
GI50 (RPMI-8226 leukemia): < 10 nM | TGI (RPMI-8226 leukemia): < 10 nM | GI50 (KM12 colon): < 10 nM | TGI (KM12 colon): < 10 nM | GI50 (MDA-MB-231 breast): < 10 nM | TGI (MDA-MB-231 breast): < 10 nM | GI50 (IGROV1 ovarian): < 10 nM | TGI (IGROV1 ovarian): < 10 nM | GI50 (NCI-H322M lung): < 10 nM | TGI (NCI-H322M lung): < 10 nM | GI50 (PC-3 prostate): < 10 nM | TGI (PC-3 prostate): < 10 nM | GI50 (SF-295 CNS): < 10 nM | TGI (SF-295 CNS): < 10 nM | GI50 (CCRF-CEM leukemia): < 10 nM | TGI (CCRF-CEM leukemia): < 10 nM | GI50 (HCT-15 colon): < 10 nM | TGI (HCT-15 colon): < 10 nM | GI50 (SNB-19 CNS): < 10 nM | TGI (SNB-19 CNS): < 10 nM | GI50 (DU-145 prostate): < 10 nM | TGI (DU-145 prostate): < 10 nM | GI50 (SF-539 CNS): < 10 nM | TGI (SF-539 CNS): < 10 nM | GI50 (RXF 393 renal): < 10 nM | TGI (RXF 393 renal): < 10 nM | GI50 (SK-OV-3 ovarian): < 10 nM | TGI (SK-OV-3 ovarian): < 10 nM | GI50 (OVCAR-4 ovarian): < 10 nM | TGI (OVCAR-4 ovarian): < 10 nM | GI50 (LOX IMVI melanoma): < 10 nM | TGI (LOX IMVI melanoma): 15.6 nM | GI50 (MCF7 breast): 13 nM | TGI (MCF7 breast): 26.9 nM | GI50 (HT29 colon): < 10 nM | TGI (HT29 colon): < 10 nM | GI50 (OVCAR-5 ovarian): < 10 nM | TGI (OVCAR-5 ovarian): < 10 nM | GI50 (NCI-H460 NSCLC): < 10 nM | TGI (NCI-H460 NSCLC): 13.5 nM | GI50 (K-562 leukemia): < 10 nM | TGI (K-562 leukemia): < 10 nM | GI50 (SNB-75 CNS): < 10 nM | TGI (SNB-75 CNS): < 10 nM | GI50 (M14 melanoma): < 10 nM | TGI (M14 melanoma): < 10 nM | GI50 (HS 578T breast): < 10 nM | TGI (HS 578T breast): < 10 nM | GI50 (SN12C renal): < 10 nM | TGI (SN12C renal): < 10 nM | GI50 (SF-268 CNS): < 10 nM | TGI (SF-268 CNS): < 10 nM | GI50 ([…]-0 renal): < 10 nM | TGI (786-0 renal): < 10 nM | GI50 (T-47D breast): < 10 nM | TGI (T-47D breast): < 10 nM | GI50 (HL-60(TB) leukemia): < 10 nM | TGI (HL-60(TB) leukemia): < 10 nM | GI50 (UACC-62 melanoma): < 10 nM | TGI (UACC-62 melanoma): < 10 nM | GI50 (A498 renal): < 10 nM | TGI (A498 renal): 252 nM | GI50 (HOP-92 NSCLC): < 10 nM | TGI (HOP-92 NSCLC): < 10 nM | GI50 (BT-549 breast): < 10 nM | TGI (BT-549 breast): < 10 nM | GI50 (EKVX NSCLC): < 10 nM | TGI (EKVX NSCLC): < 10 nM | GI50 (NCI-H522 lung): < 10 nM | TGI (NCI-H522 lung): < 10 nM | GI50 (NCI/ADR-RES ovarian): < 10 nM | TGI (NCI/ADR-RES ovarian): < 10 nM | GI50 (ACHN renal): < 10 nM | TGI (ACHN renal): < 10 nM | GI50 (TK-10 renal): < 10 nM | TGI (TK-10 renal): < 10 nM | GI50 (SW-620 colon): < 10 nM | TGI (SW-620 colon): < 10 nM | GI50 (MALME-3M melanoma): < 10 nM | TGI (MALME-3M melanoma): < 10 nM | GI50 (HOP-62 NSCLC): < 10 nM | TGI (HOP-62 NSCLC): < 10 nM | GI50 (OVCAR-3 ovarian): < 10 nM | TGI (OVCAR-3 ovarian): < 10 nM | GI50 (SR leukemia): < 10 nM | TGI (SR leukemia): < 10 nM | GI50 (UO-31 renal): < 10 nM | TGI (UO-31 renal): < 10 nM | GI50 (SK-MEL-5 melanoma): < 10 nM | TGI (SK-MEL-5 melanoma): < 10 nM | GI50 (MOLT-4 leukemia): < 10 nM | TGI (MOLT-4 leukemia): < 10 nM | GI50 (NCI-H23 lung): < 10 nM | TGI (NCI-H23 lung): < 10 nM | GI50 (MDA-MB-468 breast): < 10 nM | TGI (MDA-MB-468 breast): < 10 nM | GI50 (OVCAR-8 ovarian): < 10 nM | TGI (OVCAR-8 ovarian): < 10 nM | GI50 (A549 NSCLC): < 10 nM | TGI (A549 NSCLC): < 10 nM | GI50 (COLO 205 colon): < 10 nM | TGI (COLO 205 colon): < 10 nM | GI50 (SK-MEL-28 melanoma): < 10 nM | TGI (SK-MEL-28 melanoma): < 10 nM | GI50 (MDA-MB-435 melanoma): < 10 nM | TGI (MDA-MB-435 melanoma): < 10 nM | GI50 (HCC-2998 colon): < 10 nM | TGI (HCC-2998 colon): < 10 nM | GI50 (CAKI-1 renal): < 10 nM | TGI (CAKI-1 renal): < 10 nM
